Source: PubChem BioAssay (NCI)
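The compound was tested at five concentrations on cells cultured in 96-well plates, with a 48-hour exposure period. Definition used: TGI = concentration required for complete inhibition of growth.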

Legend:
Test in all cases: NCI-60 cell line screen, 48 h
786-0 renal = tested on: 786-0 renal
SK-MEL-5 melanoma = tested on: SK-MEL-5 melanoma
NCI-H460 lung = tested on: NCI-H460 lung
HCT-15 colon = tested on: HCT-15 colon
HT29 colon = tested on: HT29 colon
OVCAR-4 ovarian = tested on: OVCAR-4 ovarian
NCI-H522 lung = tested on: NCI-H522 lung
SN12C renal = tested on: SN12C renal
PC-3 prostate = tested on: PC-3 prostate
UACC-62 melanoma = tested on: UACC-62 melanoma
NCI/ADR-RES ovarian = tested on: NCI/ADR-RES ovarian
SF-539 CNS = tested on: SF-539 CNS
KM12 colon = tested on: KM12 colon
M14 melanoma = tested on: M14 melanoma
HCT-116 colon = tested on: HCT-116 colon
CAKI-1 renal = tested on: CAKI-1 renal
SK-MEL-28 melanoma = tested on: SK-MEL-28 melanoma
SF-268 CNS = tested on: SF-268 CNS
SNB-19 CNS = tested on: SNB-19 CNS
OVCAR-5 ovarian = tested on: OVCAR-5 ovarian
A549 NSCLC = tested on: A549 NSCLC
OVCAR-3 ovarian = tested on: OVCAR-3 ovarian
DU-145 prostate = tested on: DU-145 prostate
MDA-N = tested on: MDA-N
T-47D breast = tested on: T-47D breast
MOLT-4 leukemia = tested on: MOLT-4 leukemia
UO-31 renal = tested on: UO-31 renal
COLO 205 colon = tested on: COLO 205 colon
LOX IMVI melanoma = tested on: LOX IMVI melanoma
RPMI-8226 leukemia = tested on: RPMI-8226 leukemia
MCF7 breast = tested on: MCF7 breast
A498 renal = tested on: A498 renal
TK-10 renal = tested on: TK-10 renal
MDA-MB-435 = tested on: MDA-MB-435
MALME-3M melanoma = tested on: MALME-3M melanoma
ACHN renal = tested on: ACHN renal
CCRF-CEM leukemia = tested on: CCRF-CEM leukemia
HCC-2998 colon = tested on: HCC-2998 colon
EKVX NSCLC = tested on: EKVX NSCLC
OVCAR-8 ovarian = tested on: OVCAR-8 ovarian
K-562 leukemia = tested on: K-562 leukemia
SF-295 CNS = tested on: SF-295 CNS
RXF 393 renal = tested on: RXF 393 renal
U251 CNS = tested on: U251 CNS
NCI-H23 lung = tested on: NCI-H23 lung
SR leukemia = tested on: SR leukemia
SW-620 colon = tested on: SW-620 colon
SNB-75 CNS = tested on: SNB-75 CNS
MDA-MB-231 breast = tested on: MDA-MB-231 breast
UACC-257 melanoma = tested on: UACC-257 melanoma
SK-OV-3 ovarian = tested on: SK-OV-3 ovarian
SK-MEL-2 melanoma = tested on: SK-MEL-2 melanoma
NCI-H226 lung = tested on: NCI-H226 lung
HOP-62 NSCLC = tested on: HOP-62 NSCLC
IGROV1 ovarian = tested on: IGROV1 ovarian
BT-549 breast = tested on: BT-549 breast

CC(=O)O[C@H]1CC[C@@]2(C)C(=CC[C@@H]3[C@@H]2CC[C@]2(C)NC(=O)/C(=C\c4ccccc4)C[C@@H]32)C1
TGI (786-0 renal): 41.4 µM
TGI (SK-MEL-5 melanoma): 23.2 µM
TGI (NCI-H460 lung): 95.3 µM
TGI (HCT-15 colon): 40.4 µM
TGI (HT29 colon): 31.2 µM
TGI (OVCAR-4 ovarian): 43.8 µM
TGI (NCI-H522 lung): 31.7 µM
TGI (SN12C renal): 42 µM
TGI (PC-3 prostate): 44.5 µM
TGI (UACC-62 melanoma): 33.1 µM
TGI (NCI/ADR-RES ovarian): 63.1 µM
TGI (SF-539 CNS): 31.1 µM
TGI (KM12 colon): 42.7 µM
TGI (M14 melanoma): 30.5 µM
TGI (HCT-116 colon): 46.9 µM
TGI (CAKI-1 renal): > 100 µM
TGI (SK-MEL-28 melanoma): 32.3 µM
TGI (SF-268 CNS): 37.9 µM
TGI (SNB-19 CNS): 31.8 µM
TGI (OVCAR-5 ovarian): 35 µM
TGI (A549 NSCLC): 38.5 µM
TGI (OVCAR-3 ovarian): 28.9 µM
TGI (DU-145 prostate): 48 µM
TGI (MDA-N): 42.6 µM
TGI (T-47D breast): 69.2 µM
TGI (MOLT-4 leukemia): > 100 µM
TGI (UO-31 renal): 33.1 µM
TGI (COLO 205 colon): 38.5 µM
TGI (LOX IMVI melanoma): 33.4 µM
TGI (RPMI-8226 leukemia): 64.2 µM
TGI (MCF7 breast): 59.8 µM
TGI (A498 renal): 27.6 µM
TGI (TK-10 renal): 80.5 µM
TGI (MDA-MB-435): 33.2 µM
TGI (MALME-3M melanoma): 36.2 µM
TGI (ACHN renal): 76.1 µM
TGI (CCRF-CEM leukemia): 55.4 µM
TGI (HCC-2998 colon): 62 µM
TGI (EKVX NSCLC): 34.8 µM
TGI (OVCAR-8 ovarian): 45 µM
TGI (K-562 leukemia): > 100 µM
TGI (SF-295 CNS): 37.5 µM
TGI (RXF 393 renal): 27.8 µM
TGI (U251 CNS): 37.6 µM
TGI (NCI-H23 lung): 33.1 µM
TGI (SR leukemia): > 100 µM
TGI (SW-620 colon): 41.9 µM
TGI (SNB-75 CNS): 44.3 µM
TGI (MDA-MB-231 breast): 53 µM
TGI (UACC-257 melanoma): 43.9 µM
TGI (SK-OV-3 ovarian): 44.3 µM
TGI (SK-MEL-2 melanoma): 39.8 µM
TGI (NCI-H226 lung): 40.8 µM
TGI (HOP-62 NSCLC): 30.1 µM
TGI (IGROV1 ovarian): 42 µM
TGI (BT-549 breast): 34.2 µM
